Experimental findings from article PMC9851200, “Multiparameter phenotypic screening for endogenous TFEB and TFE3 translocation identifies novel chemical series modulating lysosome function” (Autophagy, 2022) are described below.

Holding throughout (assay type): binding
Test [1] deals with kinases (KINOMEscan panel) (Homo sapiens, UniProt Q13523). Particulars: PRPF4B; NEW KINOMEscan.
In test [2] the target is T1, kinases (KINOMEscan panel) (Homo sapiens, UniProt Q99759).
T1 sequence (Q99759 1-626): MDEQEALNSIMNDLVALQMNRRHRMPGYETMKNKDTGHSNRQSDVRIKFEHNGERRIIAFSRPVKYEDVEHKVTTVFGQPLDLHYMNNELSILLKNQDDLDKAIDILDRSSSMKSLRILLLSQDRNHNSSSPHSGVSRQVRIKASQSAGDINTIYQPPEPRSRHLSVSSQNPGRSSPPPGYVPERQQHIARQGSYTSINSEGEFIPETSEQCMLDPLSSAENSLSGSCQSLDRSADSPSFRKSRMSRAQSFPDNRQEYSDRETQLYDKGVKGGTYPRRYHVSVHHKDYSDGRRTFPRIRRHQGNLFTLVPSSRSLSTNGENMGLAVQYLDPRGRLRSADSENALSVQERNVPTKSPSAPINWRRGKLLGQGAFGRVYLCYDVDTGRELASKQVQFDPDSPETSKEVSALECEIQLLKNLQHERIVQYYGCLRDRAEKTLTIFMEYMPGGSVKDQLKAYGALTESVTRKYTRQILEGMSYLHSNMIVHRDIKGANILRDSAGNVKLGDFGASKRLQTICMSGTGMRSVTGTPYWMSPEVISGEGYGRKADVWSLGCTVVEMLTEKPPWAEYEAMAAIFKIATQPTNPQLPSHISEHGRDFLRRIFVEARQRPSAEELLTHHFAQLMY
To be noted: MAP3K3; NEW KINOMEscan.

The target of test [3] is T2, kinases (KINOMEscan panel) (Homo sapiens, UniProt Q06418).
T2 sequence (Q06418 41-890): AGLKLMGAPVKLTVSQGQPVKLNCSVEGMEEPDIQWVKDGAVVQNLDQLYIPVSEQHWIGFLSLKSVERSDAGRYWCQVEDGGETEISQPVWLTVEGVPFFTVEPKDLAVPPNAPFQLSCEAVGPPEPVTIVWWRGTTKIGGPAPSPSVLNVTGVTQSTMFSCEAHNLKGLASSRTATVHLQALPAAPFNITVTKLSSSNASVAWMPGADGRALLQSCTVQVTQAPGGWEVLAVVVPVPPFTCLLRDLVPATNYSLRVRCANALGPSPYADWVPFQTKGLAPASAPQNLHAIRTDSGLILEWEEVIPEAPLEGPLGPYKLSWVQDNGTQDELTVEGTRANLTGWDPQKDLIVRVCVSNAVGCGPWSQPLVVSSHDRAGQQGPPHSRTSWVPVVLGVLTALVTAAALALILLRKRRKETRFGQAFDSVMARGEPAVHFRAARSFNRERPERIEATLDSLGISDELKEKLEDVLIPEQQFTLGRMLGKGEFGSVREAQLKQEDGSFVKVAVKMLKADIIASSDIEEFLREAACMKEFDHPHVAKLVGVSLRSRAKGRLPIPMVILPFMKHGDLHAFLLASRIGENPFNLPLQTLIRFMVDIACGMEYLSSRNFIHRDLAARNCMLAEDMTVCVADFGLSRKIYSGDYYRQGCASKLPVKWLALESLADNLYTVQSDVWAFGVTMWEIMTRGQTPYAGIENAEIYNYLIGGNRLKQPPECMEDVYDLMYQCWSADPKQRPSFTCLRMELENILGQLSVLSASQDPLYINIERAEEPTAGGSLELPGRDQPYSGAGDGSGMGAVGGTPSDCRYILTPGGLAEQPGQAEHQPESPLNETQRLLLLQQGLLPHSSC
Particulars: NEW KINOMEscan.

For test [4], the target named is kinases (KINOMEscan panel) (Homo sapiens, UniProt P14616). To be noted: INSRR; NEW KINOMEscan.
Test [5] concerns the target T3, kinases (KINOMEscan panel) (Homo sapiens, UniProt Q6XUX3).
T3 sequence (Q6XUX3 1-929): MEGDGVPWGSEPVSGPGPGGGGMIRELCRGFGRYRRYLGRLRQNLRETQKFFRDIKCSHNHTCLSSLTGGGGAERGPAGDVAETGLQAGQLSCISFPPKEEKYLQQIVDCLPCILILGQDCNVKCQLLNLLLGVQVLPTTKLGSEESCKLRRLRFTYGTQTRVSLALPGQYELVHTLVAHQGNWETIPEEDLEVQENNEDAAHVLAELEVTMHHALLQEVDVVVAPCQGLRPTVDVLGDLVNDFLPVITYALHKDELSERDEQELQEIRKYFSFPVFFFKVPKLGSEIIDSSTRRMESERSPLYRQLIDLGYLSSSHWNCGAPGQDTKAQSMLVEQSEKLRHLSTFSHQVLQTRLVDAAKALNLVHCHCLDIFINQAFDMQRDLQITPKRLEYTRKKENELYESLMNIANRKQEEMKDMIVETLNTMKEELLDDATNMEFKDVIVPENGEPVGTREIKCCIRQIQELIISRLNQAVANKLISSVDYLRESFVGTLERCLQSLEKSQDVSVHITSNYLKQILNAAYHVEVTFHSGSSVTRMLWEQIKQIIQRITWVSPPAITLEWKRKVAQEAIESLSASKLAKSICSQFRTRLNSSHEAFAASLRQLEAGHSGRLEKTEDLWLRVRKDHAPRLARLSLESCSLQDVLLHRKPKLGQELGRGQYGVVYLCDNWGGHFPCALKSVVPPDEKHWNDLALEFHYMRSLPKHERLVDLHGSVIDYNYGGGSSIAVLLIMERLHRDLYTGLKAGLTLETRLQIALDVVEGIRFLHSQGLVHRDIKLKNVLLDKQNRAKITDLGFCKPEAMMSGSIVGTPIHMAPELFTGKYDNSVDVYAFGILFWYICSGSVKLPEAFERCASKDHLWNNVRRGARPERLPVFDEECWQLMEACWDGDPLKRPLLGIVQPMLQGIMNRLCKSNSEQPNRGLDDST
To be noted: DSTYK; NEW KINOMEscan.

The target in test [6] is kinases (KINOMEscan panel) (Homo sapiens, UniProt Q9UQM7). To be noted: kinase CAMK2A; NEW KINOMEscan.
Sequence of kinases (KINOMEscan panel) (Homo sapiens, UniProt Q9UQM7) (Q9UQM7 whole entry): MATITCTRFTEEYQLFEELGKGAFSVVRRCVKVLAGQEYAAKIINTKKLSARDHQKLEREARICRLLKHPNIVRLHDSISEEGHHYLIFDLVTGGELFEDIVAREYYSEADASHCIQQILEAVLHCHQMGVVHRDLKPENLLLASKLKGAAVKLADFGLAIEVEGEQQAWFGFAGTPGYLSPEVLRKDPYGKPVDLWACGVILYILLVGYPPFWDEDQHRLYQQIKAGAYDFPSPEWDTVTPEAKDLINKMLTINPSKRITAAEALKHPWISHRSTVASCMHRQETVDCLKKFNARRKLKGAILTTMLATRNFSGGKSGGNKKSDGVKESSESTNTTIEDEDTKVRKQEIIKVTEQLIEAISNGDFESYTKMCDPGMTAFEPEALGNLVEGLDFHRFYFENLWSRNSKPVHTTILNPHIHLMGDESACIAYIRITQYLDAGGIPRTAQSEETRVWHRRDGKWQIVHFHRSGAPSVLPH

Sequence of kinases (KINOMEscan panel) (Homo sapiens, UniProt Q13523) (Q13523 whole entry): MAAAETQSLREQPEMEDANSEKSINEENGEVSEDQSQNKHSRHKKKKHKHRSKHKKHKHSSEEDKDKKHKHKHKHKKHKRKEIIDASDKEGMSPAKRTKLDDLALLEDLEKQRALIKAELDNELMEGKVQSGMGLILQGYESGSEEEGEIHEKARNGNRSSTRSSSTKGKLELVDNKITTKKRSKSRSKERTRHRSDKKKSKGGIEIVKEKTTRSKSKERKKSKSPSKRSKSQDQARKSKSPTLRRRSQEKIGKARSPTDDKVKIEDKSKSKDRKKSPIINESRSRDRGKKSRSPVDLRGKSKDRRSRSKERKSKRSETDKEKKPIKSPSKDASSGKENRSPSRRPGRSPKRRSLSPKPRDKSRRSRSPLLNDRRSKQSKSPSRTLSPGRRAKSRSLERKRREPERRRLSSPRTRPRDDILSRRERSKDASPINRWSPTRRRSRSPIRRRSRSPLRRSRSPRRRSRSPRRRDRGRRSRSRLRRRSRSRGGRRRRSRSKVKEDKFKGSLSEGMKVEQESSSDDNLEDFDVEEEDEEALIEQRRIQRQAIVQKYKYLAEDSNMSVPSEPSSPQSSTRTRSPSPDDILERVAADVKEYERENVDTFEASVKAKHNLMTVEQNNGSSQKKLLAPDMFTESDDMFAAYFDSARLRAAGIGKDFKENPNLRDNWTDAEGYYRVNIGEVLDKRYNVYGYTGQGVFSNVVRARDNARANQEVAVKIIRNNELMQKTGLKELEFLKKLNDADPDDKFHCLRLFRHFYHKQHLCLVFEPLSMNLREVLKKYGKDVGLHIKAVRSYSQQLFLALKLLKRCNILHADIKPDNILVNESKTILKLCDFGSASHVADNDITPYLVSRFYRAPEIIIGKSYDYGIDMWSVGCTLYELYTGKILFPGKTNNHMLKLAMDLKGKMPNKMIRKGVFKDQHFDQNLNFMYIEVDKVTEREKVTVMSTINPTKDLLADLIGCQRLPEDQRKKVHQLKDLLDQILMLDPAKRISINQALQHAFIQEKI
Sequence of kinases (KINOMEscan panel) (Homo sapiens, UniProt P14616) (P14616 27-1297): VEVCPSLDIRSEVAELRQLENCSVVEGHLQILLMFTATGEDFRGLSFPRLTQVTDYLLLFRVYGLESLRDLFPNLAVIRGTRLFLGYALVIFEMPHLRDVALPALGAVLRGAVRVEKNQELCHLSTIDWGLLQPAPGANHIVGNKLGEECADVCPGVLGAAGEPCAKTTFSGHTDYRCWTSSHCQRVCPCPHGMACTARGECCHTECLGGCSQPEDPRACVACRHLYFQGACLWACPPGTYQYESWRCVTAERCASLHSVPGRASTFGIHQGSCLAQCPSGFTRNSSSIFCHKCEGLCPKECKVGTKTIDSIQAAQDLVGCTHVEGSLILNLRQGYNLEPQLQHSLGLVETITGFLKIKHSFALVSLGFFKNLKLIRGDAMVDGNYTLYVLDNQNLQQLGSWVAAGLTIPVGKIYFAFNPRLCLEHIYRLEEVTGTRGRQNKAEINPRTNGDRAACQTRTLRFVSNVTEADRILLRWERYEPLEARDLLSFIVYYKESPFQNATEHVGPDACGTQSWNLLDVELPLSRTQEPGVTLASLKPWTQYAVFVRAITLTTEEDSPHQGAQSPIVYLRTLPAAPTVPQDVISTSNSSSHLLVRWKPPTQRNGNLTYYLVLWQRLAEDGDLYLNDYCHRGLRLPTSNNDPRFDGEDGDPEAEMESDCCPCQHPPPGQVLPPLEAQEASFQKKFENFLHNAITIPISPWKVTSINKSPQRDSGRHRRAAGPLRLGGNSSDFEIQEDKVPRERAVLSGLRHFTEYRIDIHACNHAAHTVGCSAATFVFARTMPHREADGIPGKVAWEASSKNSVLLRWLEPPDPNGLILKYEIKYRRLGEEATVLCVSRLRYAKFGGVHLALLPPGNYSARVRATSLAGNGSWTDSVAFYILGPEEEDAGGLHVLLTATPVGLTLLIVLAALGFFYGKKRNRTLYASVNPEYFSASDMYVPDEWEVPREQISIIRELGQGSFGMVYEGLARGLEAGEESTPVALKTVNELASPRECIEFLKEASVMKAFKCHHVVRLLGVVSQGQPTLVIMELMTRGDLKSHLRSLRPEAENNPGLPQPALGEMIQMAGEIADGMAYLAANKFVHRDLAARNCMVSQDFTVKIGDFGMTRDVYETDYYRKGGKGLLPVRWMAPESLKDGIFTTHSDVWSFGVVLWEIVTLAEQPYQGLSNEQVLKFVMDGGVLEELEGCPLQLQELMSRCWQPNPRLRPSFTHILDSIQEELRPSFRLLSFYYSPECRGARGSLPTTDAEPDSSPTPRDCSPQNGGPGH

For `Cc1cccc(-c2nc(Nc3ccc4nn(C)cc4c3)c3ccccc3n2)n1` [NK167], the “KINOMEscan PRPF4B” value in test [1] is 0. Moreover, the “KINOMEscan MAP3K3” value in test [2] amounted to 0. The “KINOMEscan TYRO3” value in test [3] is listed as 4. The “KINOMEscan INSRR” value in test [4] worked out at 0. Moreover, the “KINOMEscan DSTYK” value in test [5] is recorded as 0. The “KINOMEscan CAMK2A” value in test [6] worked out at 0.
Take `Cc1cccc(-c2nc(N(C)c3ccc4ncsc4c3)c3ccccc3n2)n1` [NK-161]: the “KINOMEscan PRPF4B” value in test [1] is listed as 0. Moreover, in test [2], the “KINOMEscan MAP3K3” value came to 0. Besides, the “KINOMEscan TYRO3” value in test [3] was 21. Moreover, in test [4], the “KINOMEscan INSRR” value was found to be 0. Moreover, in test [5], the “KINOMEscan DSTYK” value came to 0. Moreover, the “KINOMEscan CAMK2A” value in test [6] was found to be 0.
